In publication PMC2655291 (BMC Structural Biology, 2009):
Read-outs that look alike come from different tables or passages of the source. One block for each compound: values may come before it.

What was measured:
[1] = target: T1, quinone reductase 2 (NQO2) (Homo sapiens, UniProt P16083)
T1 sequence (P16083 1-231): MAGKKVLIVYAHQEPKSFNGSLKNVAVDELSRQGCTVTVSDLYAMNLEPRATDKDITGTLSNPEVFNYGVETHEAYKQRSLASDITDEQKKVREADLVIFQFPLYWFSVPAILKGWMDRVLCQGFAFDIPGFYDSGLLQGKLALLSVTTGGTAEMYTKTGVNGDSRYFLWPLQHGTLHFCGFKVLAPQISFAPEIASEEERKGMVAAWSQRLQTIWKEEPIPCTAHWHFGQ

[2] = target: T1, quinone reductase 2 (NQO2); remark: listed apart in the source
NQO2 S16D mutant (human) = assay: SEC; analytical gel filtration of the purified mutant (data not shown); monomer and dimer

IC50 [1]: 381 nM
Compound: Cc1cn(-c2cc(NC(=O)c3ccc(C)c(Nc4nccc(-c5cccnc5)n4)c3)cc(C(F)(F)F)c2)cn1 [nilotinib]

Compound: O=c1c(O)c(-c2ccc(O)c(O)c2)oc2cc(O)cc(O)c12 [quercetin]
IC50 [2]: 42 nM

stoichiometry N (NQO2 S16D mutant (human)): 2
Compound: NQO2 S16D mutant (enzyme)
